Paper PMC9329436, “Optimization of the 4-anilinoquin(az)oline scaffold as epidermal growth factor receptor (EGFR) inhibitors for chordoma utilizing a toxicology profiling assay platform” (Scientific Reports, 2022)
Like-named read-outs stand apart in the source and are kept apart here.

Key:
U-CH1 chordoma cell line = assay: Cell viability assay (alamarBlue, 72 h), U-CH1; format: cell-based, human; conditions: n = 4, 72 h
In short: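 Compound added in quadruplicate 24 h after plating; cultures maintained in 4:1 IMDM:RPMI, 10% FBS, gel-coated flasks.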

[1] = tested on: U-CH7 patient-derived chordoma cell line; assay: Cell viability assay (alamarBlue, 72 h), U-CH7; format: cell-based, human; conditions: n = 4, 72 h
In short: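 Patient-derived chordoma lines and WS1 fibroblasts seeded in 384-well plates, dosed in quadruplicate 24 h after plating.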

[2] = molecular target: 320 wild-type protein kinases (Homo sapiens, UniProt P09769); format: biochemical; conditions: FGR, singlicate
Description: (§1) Table S4. Profiling of two compounds at two concentrations against 320 wild-type protein kinases; singlicate measurement; Residual activities (% of control).

[3] = molecular target: 320 wild-type protein kinases (Homo sapiens, UniProt P17252); format: biochemical; conditions: PKC-alpha, singlicate
Description: as §1

[4] = molecular target: 320 wild-type protein kinases (Homo sapiens, UniProt P21802); format: biochemical; conditions: singlicate
Description: as §1

[5] = molecular target: 320 wild-type protein kinases (Homo sapiens, UniProt P28482); format: biochemical; conditions: singlicate
Description: as §1

[6] = molecular target: 320 wild-type protein kinases (Homo sapiens, UniProt P29317); format: biochemical; conditions: singlicate
Description: as §1

[7] = molecular target: 320 wild-type protein kinases (Homo sapiens, UniProt P41279); format: biochemical; conditions: COT, singlicate
Description: as §1

[8] = molecular target: 320 wild-type protein kinases (Homo sapiens, UniProt P42684); format: biochemical; conditions: singlicate
Description: as §1

[9] = molecular target: 320 wild-type protein kinases (Homo sapiens, UniProt P48729); format: biochemical; conditions: singlicate
Description: as §1

[10] = molecular target: 320 wild-type protein kinases (Homo sapiens, UniProt P57059); format: biochemical; conditions: kinase SIK1, singlicate
Description: as §1

[11] = molecular target: 320 wild-type protein kinases (Homo sapiens, UniProt Q15759); format: biochemical; conditions: p38-beta, singlicate
Description: as §1

[12] = molecular target: T1, 320 wild-type protein kinases (Homo sapiens, UniProt Q8TDC3); format: biochemical; conditions: singlicate
T1 sequence (Q8TDC3 1-778): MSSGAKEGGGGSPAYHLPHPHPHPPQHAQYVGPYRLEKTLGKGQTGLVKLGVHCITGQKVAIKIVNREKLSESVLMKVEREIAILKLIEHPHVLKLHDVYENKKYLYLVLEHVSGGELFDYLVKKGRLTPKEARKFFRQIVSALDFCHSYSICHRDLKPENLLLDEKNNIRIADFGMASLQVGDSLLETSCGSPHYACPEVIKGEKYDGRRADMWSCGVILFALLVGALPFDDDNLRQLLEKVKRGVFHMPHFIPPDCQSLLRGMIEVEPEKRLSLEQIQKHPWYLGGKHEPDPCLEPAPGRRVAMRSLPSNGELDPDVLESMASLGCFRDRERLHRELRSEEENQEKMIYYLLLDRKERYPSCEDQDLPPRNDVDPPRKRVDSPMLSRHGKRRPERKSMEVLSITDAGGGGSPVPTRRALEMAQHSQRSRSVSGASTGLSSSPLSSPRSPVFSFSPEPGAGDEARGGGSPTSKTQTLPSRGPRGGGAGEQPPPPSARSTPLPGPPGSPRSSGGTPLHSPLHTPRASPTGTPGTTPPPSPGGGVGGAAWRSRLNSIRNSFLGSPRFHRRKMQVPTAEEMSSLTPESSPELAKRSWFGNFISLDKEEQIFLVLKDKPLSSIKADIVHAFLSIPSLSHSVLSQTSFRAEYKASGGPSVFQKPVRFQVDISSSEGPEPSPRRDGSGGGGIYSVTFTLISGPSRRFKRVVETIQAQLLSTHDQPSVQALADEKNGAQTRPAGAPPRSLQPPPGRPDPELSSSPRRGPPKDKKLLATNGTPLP
Description: as §1

320 wild-type protein kinases (Homo sapiens, UniProt P48729), sequence (P48729 whole entry): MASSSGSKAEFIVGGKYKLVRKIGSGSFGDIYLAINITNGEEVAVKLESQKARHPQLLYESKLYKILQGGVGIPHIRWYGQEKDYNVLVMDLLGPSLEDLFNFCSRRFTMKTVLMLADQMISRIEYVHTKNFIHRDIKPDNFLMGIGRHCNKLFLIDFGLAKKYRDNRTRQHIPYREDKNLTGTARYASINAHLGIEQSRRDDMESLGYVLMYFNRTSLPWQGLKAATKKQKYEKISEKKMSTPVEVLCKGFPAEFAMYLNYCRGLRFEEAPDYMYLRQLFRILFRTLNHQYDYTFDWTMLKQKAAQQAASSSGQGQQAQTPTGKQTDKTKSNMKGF
320 wild-type protein kinases (Homo sapiens, UniProt P57059), sequence (P57059 whole entry): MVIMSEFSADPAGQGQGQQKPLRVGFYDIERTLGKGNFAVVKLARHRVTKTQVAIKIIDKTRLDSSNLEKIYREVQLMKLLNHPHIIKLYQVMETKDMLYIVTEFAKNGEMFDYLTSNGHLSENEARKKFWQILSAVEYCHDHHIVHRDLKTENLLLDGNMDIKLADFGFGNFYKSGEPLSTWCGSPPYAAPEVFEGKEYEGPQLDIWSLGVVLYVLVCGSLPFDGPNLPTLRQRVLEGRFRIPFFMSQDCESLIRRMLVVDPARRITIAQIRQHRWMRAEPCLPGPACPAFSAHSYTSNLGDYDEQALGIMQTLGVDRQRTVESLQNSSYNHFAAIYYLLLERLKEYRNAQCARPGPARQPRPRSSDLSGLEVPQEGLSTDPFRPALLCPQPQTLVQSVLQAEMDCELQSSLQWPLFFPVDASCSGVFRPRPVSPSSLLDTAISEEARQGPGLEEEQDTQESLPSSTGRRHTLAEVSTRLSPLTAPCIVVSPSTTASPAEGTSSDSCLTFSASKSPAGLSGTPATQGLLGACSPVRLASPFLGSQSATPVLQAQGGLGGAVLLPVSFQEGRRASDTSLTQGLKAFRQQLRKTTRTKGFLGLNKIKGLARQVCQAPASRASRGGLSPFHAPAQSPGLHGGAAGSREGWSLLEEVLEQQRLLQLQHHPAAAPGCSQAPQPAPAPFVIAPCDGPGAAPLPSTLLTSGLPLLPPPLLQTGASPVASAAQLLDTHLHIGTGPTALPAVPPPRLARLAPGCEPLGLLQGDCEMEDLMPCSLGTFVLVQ
320 wild-type protein kinases (Homo sapiens, UniProt P09769), sequence (P09769 whole entry): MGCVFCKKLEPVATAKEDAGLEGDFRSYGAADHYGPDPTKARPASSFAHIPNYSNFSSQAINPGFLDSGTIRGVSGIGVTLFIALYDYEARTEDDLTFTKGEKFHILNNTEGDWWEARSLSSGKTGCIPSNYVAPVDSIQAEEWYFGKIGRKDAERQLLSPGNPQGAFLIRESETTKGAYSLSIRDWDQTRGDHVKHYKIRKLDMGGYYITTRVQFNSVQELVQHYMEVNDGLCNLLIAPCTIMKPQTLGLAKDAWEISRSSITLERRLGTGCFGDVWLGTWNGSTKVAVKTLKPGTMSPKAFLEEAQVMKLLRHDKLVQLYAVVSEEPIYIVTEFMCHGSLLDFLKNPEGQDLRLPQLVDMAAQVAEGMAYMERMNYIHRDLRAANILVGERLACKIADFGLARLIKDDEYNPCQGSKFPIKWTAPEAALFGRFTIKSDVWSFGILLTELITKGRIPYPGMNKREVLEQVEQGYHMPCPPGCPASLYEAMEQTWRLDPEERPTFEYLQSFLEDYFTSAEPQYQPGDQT
320 wild-type protein kinases (Homo sapiens, UniProt Q15759), sequence (Q15759 whole entry): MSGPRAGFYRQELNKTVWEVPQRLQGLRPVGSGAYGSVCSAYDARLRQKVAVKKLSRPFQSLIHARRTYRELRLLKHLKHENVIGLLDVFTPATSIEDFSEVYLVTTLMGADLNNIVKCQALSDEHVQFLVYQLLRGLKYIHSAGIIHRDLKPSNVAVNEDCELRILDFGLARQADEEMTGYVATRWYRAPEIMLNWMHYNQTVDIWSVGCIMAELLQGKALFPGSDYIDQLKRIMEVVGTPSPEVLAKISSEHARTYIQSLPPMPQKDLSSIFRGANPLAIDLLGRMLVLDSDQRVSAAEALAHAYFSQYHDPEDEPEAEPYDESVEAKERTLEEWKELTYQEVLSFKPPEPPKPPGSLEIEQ
320 wild-type protein kinases (Homo sapiens, UniProt P28482), sequence (P28482 whole entry): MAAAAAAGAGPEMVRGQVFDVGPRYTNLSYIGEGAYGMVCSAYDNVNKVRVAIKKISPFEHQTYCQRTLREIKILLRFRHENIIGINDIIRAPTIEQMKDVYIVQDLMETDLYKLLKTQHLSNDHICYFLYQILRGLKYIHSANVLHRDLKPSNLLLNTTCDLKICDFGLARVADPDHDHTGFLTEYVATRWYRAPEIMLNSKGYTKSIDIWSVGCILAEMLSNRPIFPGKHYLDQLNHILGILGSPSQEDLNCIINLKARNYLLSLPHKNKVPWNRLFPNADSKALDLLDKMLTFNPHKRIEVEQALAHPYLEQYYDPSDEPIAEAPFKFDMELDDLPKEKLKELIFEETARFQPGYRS
320 wild-type protein kinases (Homo sapiens, UniProt P29317), sequence (P29317 24-976): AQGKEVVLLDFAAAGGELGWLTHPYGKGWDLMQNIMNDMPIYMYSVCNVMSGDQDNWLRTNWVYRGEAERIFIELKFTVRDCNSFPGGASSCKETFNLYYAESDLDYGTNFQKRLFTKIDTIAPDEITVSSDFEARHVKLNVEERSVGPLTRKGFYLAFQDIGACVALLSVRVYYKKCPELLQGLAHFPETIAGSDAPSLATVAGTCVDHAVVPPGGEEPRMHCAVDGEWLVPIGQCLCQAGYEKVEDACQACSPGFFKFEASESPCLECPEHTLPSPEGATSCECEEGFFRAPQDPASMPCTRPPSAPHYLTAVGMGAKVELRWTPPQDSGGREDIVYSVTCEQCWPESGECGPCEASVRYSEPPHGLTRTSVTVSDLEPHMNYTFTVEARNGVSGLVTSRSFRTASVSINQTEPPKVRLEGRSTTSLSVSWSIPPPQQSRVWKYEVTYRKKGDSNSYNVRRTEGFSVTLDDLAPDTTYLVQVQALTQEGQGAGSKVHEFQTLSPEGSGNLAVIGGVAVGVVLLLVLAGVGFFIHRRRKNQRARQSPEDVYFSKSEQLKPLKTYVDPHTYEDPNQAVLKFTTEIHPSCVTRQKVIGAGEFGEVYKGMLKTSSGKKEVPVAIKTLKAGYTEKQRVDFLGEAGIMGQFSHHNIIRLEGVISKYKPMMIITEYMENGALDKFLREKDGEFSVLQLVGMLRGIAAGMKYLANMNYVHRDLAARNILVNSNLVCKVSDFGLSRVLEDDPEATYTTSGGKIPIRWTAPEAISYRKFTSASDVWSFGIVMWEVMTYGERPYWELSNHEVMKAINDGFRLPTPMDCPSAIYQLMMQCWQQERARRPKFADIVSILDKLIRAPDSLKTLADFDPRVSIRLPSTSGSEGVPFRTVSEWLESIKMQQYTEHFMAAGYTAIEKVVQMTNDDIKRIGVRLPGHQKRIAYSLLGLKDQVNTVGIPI
320 wild-type protein kinases (Homo sapiens, UniProt P41279), sequence (P41279 whole entry): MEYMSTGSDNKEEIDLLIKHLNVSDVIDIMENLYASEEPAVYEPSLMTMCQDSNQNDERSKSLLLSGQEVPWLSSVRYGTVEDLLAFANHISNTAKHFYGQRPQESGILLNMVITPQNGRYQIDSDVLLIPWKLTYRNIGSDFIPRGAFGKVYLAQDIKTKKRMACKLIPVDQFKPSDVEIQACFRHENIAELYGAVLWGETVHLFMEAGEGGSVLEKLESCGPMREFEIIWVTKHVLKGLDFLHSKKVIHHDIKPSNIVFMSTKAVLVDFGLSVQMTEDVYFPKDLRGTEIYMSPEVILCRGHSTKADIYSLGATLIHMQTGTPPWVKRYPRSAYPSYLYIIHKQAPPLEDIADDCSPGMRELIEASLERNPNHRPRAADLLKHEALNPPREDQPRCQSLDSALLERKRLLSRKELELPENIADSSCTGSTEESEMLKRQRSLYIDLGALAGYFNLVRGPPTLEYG

| Compound | IC50 (U-CH1 chordoma cell line) [µM] | IC50 [1] [µM] | Residual activity ([2]; 1.0E-06 M) | Residual activity ([2]; 1.0E-07 M) | Residual activity ([3]; 1.0E-06 M) | Residual activity ([3]; 1.0E-07 M) | Residual activity ([4]; FGF-R2, 1.0E-06 M) | Residual activity ([4]; FGF-R2, 1.0E-07 M) | Residual activity ([5]; ERK2, 1.0E-06 M) | Residual activity ([5]; ERK2, 1.0E-07 M) | Residual activity ([6]; EPHA2, 1.0E-06 M) | Residual activity ([6]; EPHA2, 1.0E-07 M) | Residual activity ([7]; 1.0E-06 M) | Residual activity ([7]; 1.0E-07 M) | Residual activity ([8]; ABL2, 1.0E-06 M) | Residual activity ([8]; ABL2, 1.0E-07 M) | Residual activity ([9]; CK1-alpha1, 1.0E-06 M) | Residual activity ([9]; CK1-alpha1, 1.0E-07 M) | Residual activity, SIK1 ([10]; assay conc. 1.0E-06 M) | Residual activity, SIK1 ([10]; assay conc. 1.0E-07 M) | also measured |
| --- | --- | --- | --- | --- | --- | --- | --- | --- | --- | --- | --- | --- | --- | --- | --- | --- | --- | --- | --- | --- | --- |
| C#Cc1cc(Nc2ncnc3cc(I)ccc23)ccc1Cl [Compound 41] | 9.1 | 8 | 114 % of control | 129 % of control | 95 % of control | 86 % of control | 85 % of control | 88 % of control | 86 % of control | 90 % of control | 91 % of control | 90 % of control | 91 % of control | 91 % of control | 97 % of control | 106 % of control | 99 % of control | 104 % of control | 77 % of control | 93 % of control | Residual activity ([11]; 1.0E-06 M): 84 % of control; Residual activity ([11]; 1.0E-07 M): 82 % of control; Residual activity ([12]; BRSK1, 1.0E-06 M): 91 % of control; Residual activity ([12]; BRSK1, 1.0E-07 M): 100 % of control |
| C#Cc1cc(Nc2ncnc3cc(OC)c(OC)cc23)ccc1Cl [Compound 45] | > 100 | 74 | 94 % of control | 125 % of control | 94 % of control | 111 % of control | 69 % of control | 87 % of control | 87 % of control | 94 % of control | 81 % of control | 87 % of control | 123 % of control | 98 % of control | 68 % of control | 96 % of control | 95 % of control | 98 % of control | 87 % of control | 101 % of control | Residual activity ([11]; 1.0E-06 M): 87 % of control; Residual activity ([11]; 1.0E-07 M): 90 % of control; Residual activity ([12]; BRSK1, 1.0E-06 M): 97 % of control; Residual activity ([12]; BRSK1, 1.0E-07 M): 89 % of control |
